ChEMBL document CHEMBL5505993, “Identification of a ferritinophagy inducer via sinomenine modification for the treatment of colorectal cancer” (Eur J Med Chem, 2024)
Active and inactive are the calls of the source. The rule behind the calls is not given here.

How the values were obtained:
HCT-116 [1] = assay: Induction of ferritin autophagy in human HCT-116 cells assessed as upregulation of FTH1 protein expression at 5 to 20 uM incubated for 12 hrs by Western blotting analysis; assay type: functional, cell-based; conditions: dose 5-20 µM
[2] = Toxicity in BALB/c mouse xenografted with human HCT-116 cells assessed as histopathological changes in liver at 60 mg/kg,ip administrated daily for 14 days by hematoxylin and eosin staining based microscopic analysis; assay type: organism-based; conditions: in vivo, 336 h, time 14 day
HCT-116 [3] = assay: Induction of ferroptosis in human HCT-116 cells assessed as increase in intracellular lipid ROS accumulation at 20 uM incubated for 12 hrs in presence of ferroptosis inhibitor, deferoxamine mesylate by C11 BODIPY probe based flow cytometry; assay type: functional, cell-based
[4] = Toxicity in BALB/c mouse xenografted with human HCT-116 cells assessed as histopathological changes in kidney at 30 mg/kg,ip administrated daily for 14 days by hematoxylin and eosin staining based microscopic analysis; assay type: organism-based; conditions: in vivo, 336 h, time 14 day

## C=C(Cl)C(=O)NCCCCCCCCCCCC(=O)Oc1c(OC)ccc2c1[C@@]13CCN(C)[C@@H](C2)[C@H]1C=C(OC)C(=O)C3
HCT-116 [1]
  Activity: Active
[2]
  Activity: Non-Toxic
HCT-116 [3]
  Activity: Active
[4]
  Activity: Non-Toxic
